Measurements published in US20260258010A1, “THIOPHENE-2-CARBOXYLIC ACID DERIVATIVE, AND PREPARATION METHOD THEREFOR AND MEDICAL USE THEREOF” (CHINA PHARMACEUTICAL UNIVERSITY, priority 2023, published 2026).

How the values were obtained:
[1] = system: IL-1β in the supernatant of the THP-1 cell culture medium; experiment: IL-1β ELISA in supernatant of LPS/ATP-stimulated THP-1 cell culture medium; format: cell-based, Human; details: PPTN 5 μM, PMA-differentiated THP-1, LPS 100 ng/mL + ATP 5 mM, FIG. 5
Protocol: Human THP-1 cells were cultured in an RPMI-1640 culture medium (containing 10% fetal bovine serum, 100 U/mL penicillin, and 100 μg/mL streptomycin) and seeded into a culture plate at a density of 1×10^5 cells/well before the experiment. The cells were cultured at 37° C. with 95% 02 and 5% CO2 humidity. Before the experiment, PMA was added at 100 ng/mL to each well, and the cells were incubated for 24 h to induce the differentiation of the THP-1 cells into macrophages. Test compound 5 (2.5 μM, 5 μM, and 10 μM) and PPTN (5 μM) were added to the culture medium in advance for intervention. After 1 h, LPS at a final concentration of 100 ng/mL was added to the cells. After 3 h, ATP at a final concentration of 5 mM was added. After 1 h, the indexes were determined as follows:
The level of IL-1β in the supernatant of the cell culture medium was detected by an ELISA kit (Shenzhen NeoBioscience Technology Co., Ltd.), and the results are shown in FIG. 5.

P2Y14 receptor = target: T1, P2Y14 receptor (Homo sapiens, UniProt Q15391); experiment: cAMP inhibition assay in HEK293 cells stably transfected with the P2Y14 receptor (UDPG-stimulated, cAMP Glo); format: cell-based; details: 100 nM compound; HEK293 stably transfected with P2Y14 receptor; 30 μM Forskolin, 1 μM UDPG, 4 h; inhibition rate from cAMP content; read-out: Inhibition @ 100 nM
T1 construct: expressed in transfected cells; host or cells: HEK293
T1 sequence (Q15391 1-338): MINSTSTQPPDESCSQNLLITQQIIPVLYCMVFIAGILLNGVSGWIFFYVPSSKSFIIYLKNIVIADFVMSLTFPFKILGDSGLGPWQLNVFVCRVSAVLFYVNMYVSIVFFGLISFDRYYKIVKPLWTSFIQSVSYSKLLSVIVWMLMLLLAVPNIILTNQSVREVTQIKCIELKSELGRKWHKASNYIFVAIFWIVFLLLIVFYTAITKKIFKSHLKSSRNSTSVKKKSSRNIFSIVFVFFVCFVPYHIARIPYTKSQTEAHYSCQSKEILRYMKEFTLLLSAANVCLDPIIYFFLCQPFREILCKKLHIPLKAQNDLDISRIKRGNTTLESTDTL
Protocol: An HEK293 cell strain stably transfected with the P2Y14 receptor was cultured in a DMEM culture medium (containing […], 100 U/mL penicillin, and 100 μg/mL streptomycin). Before the experiment, the cells were seeded into a culture plate at a density of 1×10^5 cells/well, and a serum-free culture medium was used instead. The cells were cultured at 37° C. with […] and 5% CO2 humidity. IBMX was added to inhibit the activity of PDEs, thereby ensuring a relatively high level of cAMP. The AC agonist Forskolin (30 μM) was adopted to stimulate the production of cellular cAMP. Test compounds at different concentrations (0.01 nm, 0.1 nm, 1 nm, 10 nm, and 100 nm) were added in advance, and PPTN was used as a positive control. Subsequently, 1 μM P2Y14 receptor agonist UDPG was added, and after 4 h, the content of intracellular cAMP was measured using a cAMP Glo™ Assay kit (PROMEGA Co. Ltd., USA). The inhibition rate was calculated based on the cAMP content.

acute peritonitis model = experiment: LPS-induced acute peritonitis model, inflammatory factors in peritoneal fluids; format: in vivo; details: 5, 10 and 20 mg/kg by intraarticular injection, male ICR mice, 6 h after injection, vs model control, FIGS. 6-8
Protocol: Male clean-grade ICR mice were housed with free access to water and food, and with illumination for 12 h every day at an ambient temperature of 25±2° C. The animals were divided into several groups, that is, a normal control group, a model control group, and administration groups (test compound and dexamethasone). An acute peritonitis model was induced by a single intraperitoneal injection of LSP, while an equal volume of physiological saline was injected into the joint cavity in the normal control group. Each administration group was given test compound 5 (5 mg/kg, 10 mg/kg, and 20 mg/kg) and dexamethasone (10 mg/kg) by intraarticular injection. 6 h after the injection, 8 mL of PBS was injected, and the peritoneal cavity fluids were collected.

Compound	inhibition at 0.1 µM (P2Y14 receptor) [%]	other results
O=C(O)c1cc(-c2ccc(C3CCNCC3)cc2)c2ccc(-c3ccc(C(F)(F)F)cc3)cc2c1 [PPTN]		level of IL-1β in the supernatant of the cell culture medium [1]: showed an expected effect
Cc1ccc(C(=O)Nc2cc(C(=O)O)sc2Oc2cccc(C(F)(F)F)c2)cc1 [Compound 3-8]	52.8	
Cc1ccc(C(=O)Nc2cc(C(=O)O)sc2Sc2ccc(C(F)(F)F)cc2)cc1 [Compound 12-4]	82.5	
Cc1ccc(Oc2sc(C(=O)O)cc2NC(=O)c2cnn(C)c2)cn1 [Compound 18-5]	45.8	
Cc1ccc(Oc2sc(C(=O)O)cc2NC(=O)c2ccc(C(C)C)cc2)cn1 [Compound 15-5]	78.7	
Cc1ccc(C(=O)Nc2cc(C(=O)O)sc2Oc2ccccc2C(F)(F)F)cc1 [Compound 3-9]	57.1	
Cc1ccc(Oc2sc(C(=O)O)cc2NC(=O)c2ccc(N(C)C)cc2)cn1 [Compound 18-4]	46.8	
Cc1ccc(C(=O)Nc2cc(C(=O)O)sc2Oc2ccccc2Cl)cc1 [Compound 3-6]	40.4	
Cc1ccc(C(=O)Nc2cc(C(=O)O)sc2Oc2ccc(C)nc2)nc1 [Compound 18-1]	45.1	
Cc1ccc(C(=O)Nc2cc(C(=O)O)sc2Oc2ccccc2C)cc1 [Compound 3-17]	45.8	
Cc1ccc(C(=O)Nc2cc(C(=O)O)sc2Oc2ccccc2F)cc1 [Compound 3-3]	66	
Cc1ccc(C(=O)Nc2cc(C(=O)O)sc2Nc2ccccc2)cc1 [Compound 9-1]	82.3	
Cc1ccc(Oc2sc(C(=O)O)cc2NC(=O)c2ccc(Cl)cc2)cn1 [Compound 15-2]	75.4	
Cc1ccc(C(=O)Nc2cc(C(=O)O)sc2Oc2ccsn2)cc1 [Compound 6-7]	60.3	
Cc1ccc(Oc2sc(C(=O)O)cc2NC(=O)c2ccc(C)nc2)cn1 [Compound 17, 4-(6-methylnicotinamido)-5-((6-methylpyridin-3-yl)oxy)thiophene-2-carboxylic acid]	65.1	
CCc1ccc(C(=O)Nc2cc(C(=O)O)sc2Oc2ccc(C)nc2)cc1 [Compound 15-3]	46.4	
CCCc1ccc(C(=O)Nc2cc(C(=O)O)sc2Oc2ccc(C)nc2)cc1 [Compound 15-4]	85.6	
Cc1ccc(Oc2sc(C(=O)O)cc2NC(=O)c2ccc(C(C)(C)C)cc2)cn1 [Compound 15-6]	86.1	
Cc1ccc(C(=O)Nc2cc(C(=O)O)sc2Oc2ccccn2)cc1 [Compound 6-3]	74.9	
Cc1ccc(Oc2sc(C(=O)O)cc2NC(=O)c2ccccc2)cn1 [Compound 14, 5-((6-methylpyridin-3-yl)oxy)-4-(benzamido)thiophene-2-carboxylic acid]	86.9	
Cc1ccc(Oc2sc(C(=O)O)cc2NC(=O)c2cnc(C)nc2)cn1 [Compound 18-3]	56.2	

The next lines start with results.

inhibition at 0.1 µM (P2Y14 receptor) [%]	Compound	other results
99.4	Cc1ccc(C(=O)Nc2cc(C(=O)O)sc2Oc2ccc(C)nc2)cc1 [Compound 5, 5-((6-methylpyridin-3-yl)oxy)-4-(4-methylbenzamido)thiophene-2-carboxylic acid]	gene expression levels of inflammatory factors in mouse peritoneal fluids (acute peritonitis model): down-regulate the gene expression levels of inflammatory factors to different degrees
75.6	Cc1ccc(C(=O)Nc2cc(C(=O)O)sc2Oc2ccc(C(=O)NCC3CS(=O)(=O)C3)cc2)cc1 [Compound 3-24]	
36.2	Cc1ccc(C(=O)Nc2cc(C(=O)O)sc2Oc2cccc(Cl)c2)cc1 [Compound 3-5]	
30.9	Cc1ccc(C(=O)Nc2cc(C(=O)O)sc2Oc2ccc(Cl)cc2)cc1 [Compound 3-4]	
62	Cc1ccc(C(=O)Nc2cc(C(=O)O)sc2Oc2cccnc2)cc1 [Compound 6-1]	
55.8	Cc1ccc(C(=O)Nc2cc(C(=O)O)sc2Oc2cccc(C)c2)cc1 [Compound 3-16]	
43.5	Cc1ccc(C(=O)Nc2cc(C(=O)O)sc2Oc2ccncc2)cc1 [Compound 6-6]	
69.8	COc1ccc(Oc2sc(C(=O)O)cc2NC(=O)c2ccc(C)cc2)cc1 [Compound 3-18]	
69.6	Cc1ccc(C(=O)Nc2cc(C(=O)O)sc2Oc2cccc(F)c2)cc1 [Compound 3-2]	
88.4	Cc1ccc(C(=O)Nc2cc(C(=O)O)sc2Oc2ccc(F)nc2)cc1 [Compound 6-2]	
46.2	Cc1ccc(C(=O)Nc2cc(C(=O)O)sc2Oc2ccc(C#N)cc2)cc1 [Compound 3-13]	
62.8	Cc1ccc(C(=O)Nc2cc(C(=O)O)sc2Oc2ccc(S(C)(=O)=O)cc2)cc1 [Compound 3-14]	
